Results published in patent US20080234317A1, “METHODS FOR THE IMPROVEMENT OF MEMORY AND NEUROLOGICAL FUNCTION COMPRISING THE ADMINISTRATION OF COMPOSITIONS THAT ACT AS INHIBITORS OF THE SODIUM PROTON (NA+ /H+ ) EXCHANGER, SUBTYPE 5 (NHE-5)” (SANOFI-AVENTIS, priority 2005, published 2008).
pIC50: −log10 of the molar value. Structures can show the parent of a compound that is named as a salt.

Key:
NHE-5 = target: T1, NHE-5 (Homo sapiens, UniProt Q14940); assay: recovery of intracellular pH in LAP1 cells stably expressing NHE subtypes after acidification (BCECF, FLIPR); assay type: cell-based; conditions: LAP1 cells expressing NHE-5; pH recovery registered for two minutes
T1 construct: expressed in transfected cells
T1 sequence (Q14940 1-896): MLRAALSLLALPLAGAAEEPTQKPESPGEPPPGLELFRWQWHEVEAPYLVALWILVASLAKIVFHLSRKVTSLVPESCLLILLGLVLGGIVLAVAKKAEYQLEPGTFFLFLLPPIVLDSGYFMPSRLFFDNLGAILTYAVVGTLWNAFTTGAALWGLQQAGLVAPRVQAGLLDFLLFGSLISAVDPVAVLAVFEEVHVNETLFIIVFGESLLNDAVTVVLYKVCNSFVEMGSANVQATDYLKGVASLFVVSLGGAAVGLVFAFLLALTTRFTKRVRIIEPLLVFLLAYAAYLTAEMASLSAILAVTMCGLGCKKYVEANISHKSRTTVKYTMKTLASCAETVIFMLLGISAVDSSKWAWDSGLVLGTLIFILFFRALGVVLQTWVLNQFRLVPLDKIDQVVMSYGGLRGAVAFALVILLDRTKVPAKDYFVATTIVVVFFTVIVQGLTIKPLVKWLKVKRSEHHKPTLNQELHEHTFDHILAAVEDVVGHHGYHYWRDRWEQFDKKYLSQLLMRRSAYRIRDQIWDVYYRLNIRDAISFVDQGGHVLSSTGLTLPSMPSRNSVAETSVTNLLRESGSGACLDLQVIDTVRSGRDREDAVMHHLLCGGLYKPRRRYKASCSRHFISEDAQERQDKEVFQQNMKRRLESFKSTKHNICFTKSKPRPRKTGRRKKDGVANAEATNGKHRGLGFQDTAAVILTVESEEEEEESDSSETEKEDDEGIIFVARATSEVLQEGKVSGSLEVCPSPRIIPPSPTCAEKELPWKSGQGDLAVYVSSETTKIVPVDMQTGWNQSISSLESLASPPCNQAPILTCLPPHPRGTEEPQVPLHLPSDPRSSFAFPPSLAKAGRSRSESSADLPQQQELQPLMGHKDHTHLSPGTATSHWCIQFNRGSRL
Method: In order to obtain pharmacological data for NHE-5 inhibition, the recovery in the intracellular pH (pHi) of LAP1 cells, which stably express the different subtypes of the sodium-proton exchanger (NHE), was determined after an acidification. This recovery occurs even under bicarbonate-free conditions in the case of functioning NHE. To this end, the pHi was determined with the pH-sensitive fluorescent dye BCECF (Molecular Probes, Eugene, Oreg., USA; the precursor BCECF-AM is used). […] The pH recovery was started by the addition of 90 μl of Na^+-containing buffer (133.8 mM NaCl, 4.7 mM KCl, 1.25 mM CaCl2, 1.25 mM MgCl2, 0.97 mM Na2HPO4, 0.23 mM NaH2PO4, 10 mM Hepes, 5 mM glucose; a pH of 7.4 is established with 1 M NaOH) in the analytical instrument (FLIPR, “Fluorometric Imaging Plate Reader”, Molecular Devices, Sunnyvale, Calif., USA). The BCECF fluorescence was determined at an excitation wavelength of 498 nm and the FLIPR emission filter 1 (band gap from 510 to 570 nm). The subsequent changes in fluorescence were registered for two minutes at NHE-5 as a measure of the pH recovery. […] From the percentages of the pH recovery, the IC50 value of the particular substance for the individual NHE subtypes was calculated by means of the program XLFit (idbs, Surrey, UK).

[1] = test system: LTP in the CA 1 region of the hippocampus section; assay: early LTP after weak tetanus in hippocampus sections, CA 1 region (fEPSP slope); assay type: cell-based, Wistar rats; conditions: 10 μM

| SMILES | melting point | pIC50 (NHE-5) | potentiation of the EPSP, % of the baseline ([1]; flushed 20 min before stimulation, washed out 20 min after, 80 min after the stimulus, control 113%) | intrinsic effect on synaptic transmission ([1]; baseline recording before tetanus, rat hippocampus sections) | maintenance of the weak LTP ([1]; weak tetanus, rat hippocampus sections) |
| --- | --- | --- | --- | --- | --- |
| CN1Cc2c(Cl)cc(Cl)cc2C(c2ccc(S(=O)(=O)N=C(N)N)cc2)C1 (centres unmarked) (as salt: hydrochloride) [Example 1, N-Diaminomethylene-4-(6,8-dichloro-2-methyl-1,2,3,4-tetrahydroisoquinolin-4-yl)benzenesulfonamide, dihydrochloride] | 140 °C (dec.) |  |  |  |  |
| CN1Cc2c(Cl)cc(Cl)cc2C(c2ccc(S(=O)(=O)N=C(N)N)cc2)C1 (centres unmarked) [Example 1, N-Diaminomethylene-4-(6,8-dichloro-2-methyl-1,2,3,4-tetrahydroisoquinolin-4-yl)benzenesulfonamide, dihydrochloride] |  | 6.43 | under 137 % of the baseline | no intrinsic effect on synaptic transmission | improve maintenance of the weak LTP |
